This note sets out measurements from patent US9492464B2, “Composition for preventing or treating side effect of steroid in subject comprising acetylsalicylic acid and use thereof” (Samsung Electronics Co., Ltd., priority 2014, dated 2016).

What all share (assay type): cell-based, mouse
One assay deals with Atrogin-1. Briefly: Real time PCR of Atrogin-1 mRNA in differentiated C2C12 cells. The following applies: 400 μM Aspirin 24 hours, then 2 μM dexamethasone 24 hours, normalized to GAPDH, FIG. 3A. Here is the method: (§1) As described above with reference to Example 1(2), C2C12 cells were completely differentiated into muscle cells, and 4 ml of a fresh culture medium including 400 μM of Aspirin (Sigma Aldrich) was added thereto, and then the cells were cultured for 24 hours. 2 μM of dexamethasone (Sigma Aldrich) was added to the cultured cells, and the cells were cultured for 24 hours. The culture medium was removed therefrom, and the cells were collected. A negative control group was not treated with acetylsalicylic acid and dexamethasone.
(§2) A Trizol reagent (Invitrogen) was added to the collected cells, and total RNA was separated therefrom according to manufacturer's protocols. Complementary DNA (cDNA) was synthesized from the separated total RNA by using a reverse transcriptase. Amounts of mRNA of Atrogin-1 and MuRF-1 were quantified using a real time PCR device (MyiQPCR instrument, BioRad) that is a device measuring SYBR Green. The results were normalized with respect to an amount of GAPDH mRNA. […]
(§3) Values obtained via amplification were normalized by GAPDH gene, and relative expression levels of mRNA of Atrogin-1 and MURF-1 were quantified. The quantified relative expression levels (arbitrary unit (AU)) of mRNA of Atrogin-1 and MURF-1 are illustrated in FIGS. 3A and 3B, respectively, […]
A general note: Quantitative PCR measures a nucleic acid by following its amplification.

Another assay has as its system MuRF-1. Kind of assay: Real time PCR of MuRF-1 mRNA in differentiated C2C12 cells. The following applies: 400 μM Aspirin 24 hours, then 2 μM dexamethasone 24 hours, normalized to GAPDH, FIG. 3B. The procedure: as §1, §2, §3
In the next assay the test system is glucocorticoid receptor. Kind of assay: Immunoblotting of phosphorylated glucocorticoid receptor (pGR) in differentiated C2C12 cells. The conditions noted are these: 40, 400 or 4000 μM Aspirin pre-treatment 24 hours, then 2 μM dexamethasone 24 hours; as amount of Aspirin increases, FIG. 1. Here is the method:
First, C2C12 cell lines (mouse gastrocnemius muscle, ATCC® CRL-1772™) were seeded in a 60 mm dish in 10% FBS/DMEM and incubated at 37° C. in a 5% CO2 incubator. When the cells formed 70% confluent, the culture medium was replaced with 2% FBS/DMEM and the cells were cultured for 4 days to completely induce differentiation into muscle cells. C2C12 cell lines are mouse myoblast cell lines obtained by continuous culture of myoblast cells cultured from gastrocnemius muscle of C3H mice.
When C2C12 cells were completely differentiated into muscle cells, the culture medium was removed therefrom, and 4 ml of a fresh culture medium including 40 μM, 400 μM, or 4000 μM of Aspirin (Sigma Aldrich) was added thereto, and then the cells were cultured for 24 hours. 2 μM of dexamethasone (Sigma Aldrich) was added to the cultured cells and the cells were further cultured for 24 hours. A negative control group was not treated with acetylsalicylic acid and dexamethasone.
The culture medium was removed therefrom, and the cells were collected. Then, 500 μl of RIPA (20 mM Tris-HCl (pH 7.5), 150 mM NaCl, 1 mM Na2EDTA, 1 mM EGTA, 1% NP-40, 1% (w/v) sodium deoxycholate, 2.5 mM sodium pyrophosphate, 1 mM beta-glycerophosphate, 1 mM Na3VO4, and 1 μg/ml leupeptin) lysis buffer was added thereto. The cells were lysed to obtain lysates. […]

`CC(=O)Oc1ccccc1C(=O)O` [Aspirin, 2-(acetyloxy)benzoic acid]: in the assay on Atrogin-1, the “expression of mRNA of Atrogin-1” value is “did not increase”. Also, in the assay on MuRF-1, the “expression of mRNA of MuRF1” value is listed as “did not increase”. The “amount of glucocorticoid receptor GR phosphorylated by dexamethasone” value in the assay on glucocorticoid receptor is “decreases”.
